Tests used:
Assay type in all cases: in vivo
[1] = tested on: Myzus persicae (green peach aphid); assay: Myzus persicae (green peach aphid) sunflower leaf disc spray test; conditions: for control (mortality): 200 ppm spray on sunflower leaf discs, aphid population of mixed ages, 6 DAT; for mortality at 200 ppm: Myzus persicae, foliar, 144 h, read-out: control (mortality)
Protocol: Sunflower leaf discs were placed on agar in a 24-well microtiter plate and sprayed with test solutions at an application rate of 200 ppm. After drying, the leaf discs were infested with an aphid population of mixed ages. After an incubation period of 6 DAT, samples were checked for mortality. The following compounds gave 100% control: 1.001, 1.002, 1.003, 1.004, 1.005, 1.006, 1.008, 1.009, 1.012, 1.013, 1.014, 1.016, 1.017 and 1.018. The following compounds gave 80% control: 1.007 and 1.011. The following compound gave 50% control: 1.010

[2] = tested on: Tetranychus urticae (two-spotted spider mite); assay: Tetranychus urticae (two-spotted spider mite) bean leaf disc spray test; conditions: for mortality at 200 ppm: Tetranychus urticae, foliar, 192 h, read-out: control (egg mortality, larval mortality, adult mortality)
Description: Bean leaf discs on agar in 24-well microtiter plates wer sprayed with test solutions at an application rate of 200 ppm. After drying, the leaf discs are infested with mite populations of mixed ages. 8 days later, discs are checked for egg mortality, larval mortality, and adult mortality. The following compounds gave 100% control: 1.001, 1.002, 1.003, 1.004, 1.006, 1.008, 1.009, 1.010, 1.012, 1.013, 1.014, 1.016, 1.017 and 1.018. The following compound gave 50% control: 1.011.

[3] = tested on: Heliothis virescens (tobacco budworm); assay: Heliothis virescens (tobacco budworm) egg/larva test on artificial diet; conditions: for control (egg mortality, larval mortality, growth regulation): 200 ppm by pipetting, eggs 0-24 h old on artificial diet, 4 days incubation; for mortality at 200 ppm: Heliothis virescens, read-out: control (egg mortality, larval mortality, growth regulation)
Protocol: Eggs (0-24 h old) were placed in 24-well microtiter plate on artificial diet and treated with test solutions at an application rate of 200 ppm by pipetting. After an incubation period of 4 days, samples were checked for egg mortality, larval mortality, and growth regulation. The following compounds gave 100% control: 1.003 and 1.009. The following compounds gave 80% control: 1.001, 1.004, 1.005, 1.008 and 1.016. The following compounds gave 50% control: 1.013 and 1.017.

[4] = tested on: Myzus persicae (green peach aphid); assay: Myzus persicae (green peach aphid) pea seedling root uptake test; conditions: for control (mortality): 24 ppm test solution, roots of infested pea seedlings, 6 days after introduction; for mortality at 24 ppm: Myzus persicae, 144 h, read-out: control (mortality)
Description: Roots of pea seedlings, infested with an aphid population of mixed ages, were placed directly in the test solutions of 24 ppm. 6 days after introduction, samples were checked for mortality. The following compounds gave 100% control: 1.004 and 1.012. The following compounds gave 80% control: 1.001, 1.002, 1.009, 1.013 and 1.016. The following compound gave 50% control: 1.003.

## CCC(Oc1cccc([N+](=O)[O-])c1Cl)C1=NCCN1C(=O)OC(C)(C)C (stereo not drawn) [Compound 1.011]
[1]
  control (mortality): 80%
[2]; 200 ppm spray on bean leaf discs, mite populations of mixed ages, 8 days
  control (egg mortality, larval mortality, adult mortality): 50%

## CCCCC(Oc1cccc([N+](=O)[O-])c1C)C1=NCCN1 (stereo not drawn) [Compound 1.005]
[3]
  control (egg mortality, larval mortality, growth regulation): 80%

## CCCC(Oc1cccc([N+](=O)[O-])c1C)C1=NCCN1 (stereo not drawn) [Compound 1.004]
[3]
  control (egg mortality, larval mortality, growth regulation): 80%
[4]
  control (mortality): 100%

## CCCC(Oc1cccc([N+](=O)[O-])c1Cl)C1=NCCN1C(=O)OC(C)(C)C (stereo not drawn) [Compound 1.010]
[1]
  control (mortality): 50%

## Cc1c(OC(C2=NCCN2)C(C)C)cccc1[N+](=O)[O-] (stereo not drawn) [Compound 1.002]
[4]
  control (mortality): 80%

## CCC(Oc1cccc([N+](=O)[O-])c1C)C1=NCCN1C(=O)OC(C)(C)C (stereo not drawn) [Compound 1.007]
[1]
  control (mortality): 80%

## COCC(Oc1cccc([N+](=O)[O-])c1C)C1=NCCN1 (stereo not drawn) [Compound 1.012, 2-[2-Methoxy-1-(2-methyl-3-nitro-phenoxy)-ethyl]-4,5-dihydro-1H-imidazole]
[1]
  mortality at 200 ppm: 100%
[4]
  mortality at 24 ppm: 100%
[2]
  mortality at 200 ppm: 100%

## C=CCC(Oc1cccc([N+](=O)[O-])c1C)C1=NCCN1 (stereo not drawn) [Compound 1.013]
[3]
  control (egg mortality, larval mortality, growth regulation): 50%
[4]
  control (mortality): 80%

## COCC(Oc1cccc([N+](=O)[O-])c1Cl)C1=NCCN1 (stereo not drawn) [Compound 1.017]
[3]
  control (egg mortality, larval mortality, growth regulation): 50%

## CCCC(Oc1cccc([N+](=O)[O-])c1Cl)C1=NCCN1 (stereo not drawn) [Compound 1.009]
[3]
  control (egg mortality, larval mortality, growth regulation): 100%
[4]
  control (mortality): 80%

## Cc1c(OC(C2=NCCN2)C2CC2)cccc1[N+](=O)[O-] (stereo not drawn) [Compound 1.003]
[3]
  control (egg mortality, larval mortality, growth regulation): 100%
[4]
  control (mortality): 50%

## CCC(Oc1cccc([N+](=O)[O-])c1C)C1=NCCN1 (stereo not drawn) [Compound 1.001]
[3]
  control (egg mortality, larval mortality, growth regulation): 80%
[4]
  control (mortality): 80%

## CCC(Oc1cccc([N+](=O)[O-])c1Cl)C1=NCCN1 (stereo not drawn) [Compound 1.008, 2-[1-(2-Chloro-3-nitro-phenoxy)-propyl]-4,5-dihydro-1H-imidazole]
[3]
  mortality at 200 ppm: 80%
[1]
  mortality at 200 ppm: 100%
[2]
  mortality at 200 ppm: 100%

## C=CCC(Oc1cccc([N+](=O)[O-])c1Cl)C1=NCCN1 (stereo not drawn) [Compound 1.016, 2-[1-(2-Chloro-3-nitro-phenoxy)-but-3-enyl]-4,5-dihydro-1H-imidazole]
[3]
  mortality at 200 ppm: 80%
[1]
  mortality at 200 ppm: 100%
[4]
  mortality at 24 ppm: 80%
[2]
  mortality at 200 ppm: 100%

Source: patent publication US20100267795A1, “NITROSUBSTITUTED ARYLOXYALKYLIMIDAZOLINES FOR USE AS PESTICIDES” (SYNGENTA CROP PROTECTION, INC., priority 2007, published 2010)
